Experimental findings from patent US10583119B2, “Compounds, compositions and methods for making the same” (Signum Biosciences, Inc., priority 2008, dated 2020) are described below.

pIC50: −log10 of the molar value. Entries after “also recorded” stand apart in the source; their conditions may differ. Where only a bound is given, the exact number is not on record here.

The subject of data set [1] is phosphorylated Tau. Description: Phosphorylated tau in vivo at four weeks (pS396 Western blot of brain). As to conditions: 0.1% in chow, phospho-Serine 396. Also noted: species or system mice. The method, then: Swiss Webster mice (9-12 weeks old) were fed ad libitum, either standard rodent chow (Control), or rodent chow formulated with 0.1 g Compound I-63 per 100 g chow (0.1% Compound I-63) or 0.1 g Compound I-62 per 100 g chow (0.1% Compound I-62); water was changed weekly. Mice were housed at 23° C., on a 12 hour light and dark cycle, with 6 mice per cage. At 4 weeks, six mice from the Control, 0.1% Compound I-63 and 0.1% Compound I-62 groups were sacrificed by cervical dislocation, brains removed, snap-frozen in liquid nitrogen, and stored at −80° C. Brains were homogenized in 350 pi of buffer containing 20 mM MOPS-Na, pH 7.2, 1 mM EDTA/DTT, 0.5 mg/L of aprotinin, leupeptin and pepstatin, 100 nM okadaic acid, and clarified by centrifugation (14000 rpm, 10 min, 4° C.). Supernatant protein concentrations were measured by the Bradford method, 4 volumes of the supernatant and 1 volume of 5×SDS sample buffer were mixed and boiled for 2 minutes. Boiled homogenate ([…]) were loaded on 12% polyacrylamide gels, and transferred to nitrocellulose membranes. […] Protein bands were detected with the ECL Plus reagent (GE Healthcare) and blots scanned on a Molecular Dynamics Storm Imager. […]

Data set [2] deals with T1, PP2A (Homo sapiens, UniProt P67775).
T1 construct: made in house
As to the kind of experiment: Phosphatase activity of PP2A using pNPP as substrate. The format is biochemical. As to conditions: un-methylated PP2A, non-protein substrate pNPP, absence of ME and MT. The method, then: PP2A (10-200 nM) and pNPP (5-10 mM, Sigma) were mixed into 96-well plate (Fisher Scientific Inc.) in 50 μL of the buffer required. Reactions were performed at room temperature, and fully stopped by adding equal volume of 0.1 M EDTA. Production of p-nitrophenol […] was quantified by absorbance of reaction mixtures at 405 nm using the VMax® microplate reader (Molecular Devices).

Data set [3] concerns N2a Neuroblastoma Cells. Description: Cytotoxicity in N2a neuroblastoma cells (CellTiter 96 AQueous One). The class given is cell-based. The note with it: all concentrations tested (1-50 μM). The method, then:
2×10^4 N2a cells were plated in each well of a 96-well cell culture plate containing 100 pi EMEM (Gibco), supplemented with 10% FBS (N2a growth medium), and were incubated at 37° C. for 48 hours. On the day of treatment, stock solutions of […] of Compound I-63 in ethanol were further diluted with N2a growth medium to obtain Compound I-63-containing N2a medium with 50 μM, 10 μM, 5 μM and 1 μM Compound I-63. The final concentration of ethanol in all media dilutions was 1%, and therefore 1% ethanol was added to the 0 μM Compound I-63 (untreated) control. The media dilutions were applied to the N2a cells (100 µl per well) and incubated at 37° C. for 4 hours or 24 hours. At the end of the treatment period, cell media was removed and 100 μl of pre-warmed phenol red-free N2a growth media was added to each well. 20 µl of the CellTiter 96® AQueous One Solution (Promega) was added to each well and the dish was incubated at 37° C. for 1-4 hours until visible reddish color develops. The dish was read at a wavelength of 490 nm using a plate reader. N2a cells were grown in 96-well dishes and were treated for 4 hours (♦) or 24 hours (i) with increasing concentrations of Compound I-63. Cell survival was assayed using the CellTiter 96® AQueous One Solution (Promega) using the manufacturer's directions. […]

Data set [4] concerns Swiss-Webster (wild-type) mice. Description: Glucose metabolism (intraperitoneal glucose tolerance test, body weight) in wild-type mice. The format is in vivo. The note with it: 0.1% in diet for 128 days. The text has this:
The glucose tolerance test (GTT) measures the body's ability to metabolize glucose. It is currently used to diagnose patients with prediabetes disposition and diabetes.
Twenty (20) Swiss-Webster (wild-type) mice were acclimated for 2 weeks. The mice were ear notched for identification and housed in individually and negatively ventilated polycarbonate cages with HEPA filtered air at a density of 6 mice per cage. Bed-o-cob corn cob bedding was used and cages were changed every two weeks. The animal room was lighted entirely with artificial fluorescent lighting, with a controlled 12 h light/dark cycle (7 am to 7 pm light). The normal temperature and relative humidity ranged in the animal rooms are 22±4° C. and 50±15%, respectively. The animal rooms were set to have 15 air exchanges per hour. Filtered tap water, acidified to a pH of 2.8 to 3.2. LabDiet D10001 was provided ad libitum, and leftover food was removed once per week.
Following acclimation, mice are assigned to groups according to diet. • 1. Control Diet (D10001) • 2. Compound I-63 ((D10001 with 0.1% 1-63)
The mice were maintained on the diet for 128 days. […] Mice were weighed and glucose dose calculated for […] body weight. […] Blood glucose levels were measured with the OneTouch UltraSmart electronic glucometer at time point O with tail vein blood. […] Blood glucose was measured at 15, 30, 45, 90 and 120 minutes after glucose injection.

T1 sequence (P67775 whole entry): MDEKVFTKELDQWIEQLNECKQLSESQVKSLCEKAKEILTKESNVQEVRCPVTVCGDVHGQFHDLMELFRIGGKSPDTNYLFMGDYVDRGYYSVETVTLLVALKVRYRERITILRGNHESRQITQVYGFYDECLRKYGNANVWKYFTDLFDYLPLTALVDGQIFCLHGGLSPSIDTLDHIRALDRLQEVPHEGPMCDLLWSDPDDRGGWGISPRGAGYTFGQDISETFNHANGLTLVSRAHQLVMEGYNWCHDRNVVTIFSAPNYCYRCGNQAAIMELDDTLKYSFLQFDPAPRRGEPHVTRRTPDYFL
T1 sequence (P30153 whole entry partner): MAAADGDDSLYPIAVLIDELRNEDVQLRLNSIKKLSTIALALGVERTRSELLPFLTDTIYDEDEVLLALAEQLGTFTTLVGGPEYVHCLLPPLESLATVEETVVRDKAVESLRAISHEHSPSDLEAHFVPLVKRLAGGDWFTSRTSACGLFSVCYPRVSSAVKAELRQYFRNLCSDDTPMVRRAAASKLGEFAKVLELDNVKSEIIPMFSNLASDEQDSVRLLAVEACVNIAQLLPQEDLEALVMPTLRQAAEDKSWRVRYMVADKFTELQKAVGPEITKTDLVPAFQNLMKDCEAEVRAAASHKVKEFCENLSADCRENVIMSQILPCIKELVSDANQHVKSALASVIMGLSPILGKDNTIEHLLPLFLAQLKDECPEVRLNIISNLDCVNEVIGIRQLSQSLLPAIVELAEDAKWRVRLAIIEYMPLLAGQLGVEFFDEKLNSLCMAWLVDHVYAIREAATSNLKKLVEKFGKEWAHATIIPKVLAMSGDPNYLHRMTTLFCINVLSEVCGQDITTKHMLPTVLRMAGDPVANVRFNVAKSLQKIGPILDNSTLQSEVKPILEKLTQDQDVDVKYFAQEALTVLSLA

As a reminder, the pIC50 is the negative decadic logarithm of the IC50, by convention in mol/L. As to `CCCCCCCCCCCCCCCCCCCC(=O)NCCc1c[nH]c2ccc(O)cc12` [Compound I-63, N-(2-(5-hydroxy-1H-indol-3-yl)ethyl)icosanamide], the “lowering of phosphorylated tau levels in the brain compared to control” value in data set [1] is 40%. In data set [2], this molecule showed a pIC50 below 4.00. The cell survival entry in data set [3] (4 hours) is “over 85%”. Also, in data set [3] (24 hours), the cell survival result is on record as “over 85%”. Moreover, in data set [4], the “glucose tolerance in intraperitoneal glucose tolerance test” value is reported as “consistently lower glucose levels; also recorded: improved glucose tolerance” and the “incremental area under the curve of blood glucose levels in the glucose tolerance test compared to control diet” value is recorded as below 10%.
